Laboratory results reported in PubChem BioAssay AID1963832 (Molecular Pharmacology Branch, DTP, NCI, 2024).

System: 885724-159-R-J1-PDC complex spheroid viability
Assay: Anticancer human tumor 885724-159-R-J1-PDC patient-derived pancreatic adenocarcinoma cell line growth inhibition [POLQ]
Conditions: for IC50: curve of first compound; for viability, T/C: stronger effect = lower value
Method in brief: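 Complex spheroid viability model combining PDC tumour cells with endothelial (HUVEC) and MSC stromal cells. Novobiocin, ART-558 or RP6685 were tested singly and in combination with standard and investigational anticancer drugs. Each was titrated in half-log steps from near clinical Cmax, or from 10 microM where Cmax was unknown.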

[1] = second compound 0.0316 µM, first compound 0.00316 µM
[2] = second compound 0.0316 µM, first compound 0.01 µM
[3] = second compound 0.0316 µM, first compound 0.0316 µM
[4] = second compound 0.0316 µM, first compound 0.1 µM
[5] = second compound 0.1 µM, first compound 0.00316 µM
[6] = second compound 0.1 µM, first compound 0.01 µM
[7] = second compound 0.1 µM, first compound 0.0316 µM
[8] = second compound 0.1 µM, first compound 0.1 µM
[9] = second compound 0.316 µM, first compound 0.00316 µM
[10] = second compound 0.316 µM, first compound 0.01 µM
[11] = second compound 0.316 µM, first compound 0.0316 µM
[12] = second compound 0.316 µM, first compound 0.1 µM
[13] = second compound 1 µM, first compound 0.00316 µM
[14] = second compound 1 µM, first compound 0.01 µM
[15] = second compound 1 µM, first compound 0.0316 µM
[16] = second compound 1 µM, first compound 0.1 µM
[17] = second compound 3.16 µM, first compound 0.00316 µM
[18] = second compound 3.16 µM, first compound 0.01 µM
[19] = second compound 3.16 µM, first compound 0.0316 µM
[20] = second compound 3.16 µM, first compound 0.1 µM
[21] = second compound 10 µM, first compound 0.00316 µM
[22] = second compound 10 µM, first compound 0.01 µM
[23] = second compound 10 µM, first compound 0.0316 µM
[24] = second compound 10 µM, first compound 0.1 µM
[25] = second compound 0.0316 µM, first compound 0.316 µM
[26] = second compound 0.0316 µM, first compound 1 µM
[27] = second compound 0.1 µM, first compound 0.316 µM
[28] = second compound 0.1 µM, first compound 1 µM
[29] = second compound 0.316 µM, first compound 0.316 µM
[30] = second compound 0.316 µM, first compound 1 µM
[31] = second compound 1 µM, first compound 0.316 µM
[32] = second compound 1 µM, first compound 1 µM
[33] = second compound 3.16 µM, first compound 0.316 µM
[34] = second compound 3.16 µM, first compound 1 µM
[35] = second compound 10 µM, first compound 0.316 µM
[36] = second compound 10 µM, first compound 1 µM
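Note: spheroids exposed to compounds for 7 days.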

SMILES: CC[C@@]1(O)C(=O)OCc2c1cc1n(c2=O)Cc2cc3c(CN(C)C)c(O)ccc3nc2-1 + COC1C(OC(N)=O)C(O)C(Oc2ccc3c(O)c(NC(=O)c4ccc(O)c(CC=C(C)C)c4)c(=O)oc3c2C)OC1(C)C
- IC50 (second compound 0.0316 µM): > 100 nM
- IC50 (second compound 0.1 µM): 94.7 nM
- IC50 (second compound 0.316 µM): > 100 nM
- IC50 (second compound 1 µM): > 100 nM
- IC50 (second compound 3.16 µM): > 100 nM
- IC50 (second compound 10 µM): > 100 nM
- viability, T/C (second compound 0.0316 µM, first compound 0.000316 µM): 102%
- viability, T/C (second compound 0.0316 µM, first compound 0.001 µM): 101%
- viability, T/C [1]: 84%
- viability, T/C [2]: 98.1%
- viability, T/C [3]: 76.2%
- viability, T/C [4]: 51.3%
- viability, T/C (second compound 0.1 µM, first compound 0.000316 µM): 111%
- viability, T/C (second compound 0.1 µM, first compound 0.001 µM): 117%
- viability, T/C [5]: 97.6%
- viability, T/C [6]: 97%
- viability, T/C [7]: 76.7%
- viability, T/C [8]: 48.3%
- viability, T/C (second compound 0.316 µM, first compound 0.000316 µM): 94.4%
- viability, T/C (second compound 0.316 µM, first compound 0.001 µM): 101%
- viability, T/C [9]: 94.4%
- viability, T/C [10]: 87.2%
- viability, T/C [11]: 73.2%
- viability, T/C [12]: 54.4%
- viability, T/C (second compound 1 µM, first compound 0.000316 µM): 104%
- viability, T/C (second compound 1 µM, first compound 0.001 µM): 94.6%
- viability, T/C [13]: 93.7%
- viability, T/C [14]: 95.3%
- viability, T/C [15]: 76.2%
- viability, T/C [16]: 56.1%
- viability, T/C (second compound 3.16 µM, first compound 0.000316 µM): 98.5%
- viability, T/C (second compound 3.16 µM, first compound 0.001 µM): 104%
- viability, T/C [17]: 97%
- viability, T/C [18]: 84.3%
- viability, T/C [19]: 77.3%
- viability, T/C [20]: 55.1%
- viability, T/C (second compound 10 µM, first compound 0.000316 µM): 109%
- viability, T/C (second compound 10 µM, first compound 0.001 µM): 94.5%
- viability, T/C [21]: 94.4%
- viability, T/C [22]: 79.2%
- viability, T/C [23]: 66.1%
- viability, T/C [24]: 50.9%

SMILES: COc1cccc(OCCCN)c1-c1cc(Nc2cnc(C#N)cn2)n[nH]1 + Cc1cccc(N(C)C(=O)C2C(O)CCN2c2nc(C)cc(C(F)(F)F)c2C#N)c1
- IC50 (second compound 0.0316 µM): 10.6 nM
- IC50 (second compound 0.1 µM): 20.7 nM
- IC50 (second compound 0.316 µM): 10.6 nM
- IC50 (second compound 1 µM): 9.08 nM
- IC50 (second compound 3.16 µM): 8.91 nM
- IC50 (second compound 10 µM): 9.02 nM
- viability, T/C [1]: 71.8%
- viability, T/C [2]: 51.3%
- viability, T/C [3]: 42.9%
- viability, T/C [4]: 44.4%
- viability, T/C [25]: 46.4%
- viability, T/C [26]: 45.6%
- viability, T/C [5]: 78.5%
- viability, T/C [6]: 57.1%
- viability, T/C [7]: 42.5%
- viability, T/C [8]: 46.8%
- viability, T/C [27]: 45.5%
- viability, T/C [28]: 48.6%
- viability, T/C [9]: 71.9%
- viability, T/C [10]: 52.2%
- viability, T/C [11]: 40.9%
- viability, T/C [12]: 42.7%
- viability, T/C [29]: 41.8%
- viability, T/C [30]: 48.7%
- viability, T/C [13]: 73%
- viability, T/C [14]: 48.5%
- viability, T/C [15]: 41.9%
- viability, T/C [16]: 44%
- viability, T/C [31]: 41.6%
- viability, T/C [32]: 46.8%
- viability, T/C [17]: 71.8%
- viability, T/C [18]: 46.6%
- viability, T/C [19]: 47.5%
- viability, T/C [20]: 48%
- viability, T/C [33]: 47.8%
- viability, T/C [34]: 47.6%
- viability, T/C [21]: 76.6%
- viability, T/C [22]: 47.4%
- viability, T/C [23]: 45.4%
- viability, T/C [24]: 44.3%
- viability, T/C [35]: 48.2%
- viability, T/C [36]: 48.2%

SMILES: C#Cc1c(F)ccc2cc(O)cc(-c3ncc4c(N5CC6CCC(C5)N6)nc(OCC56CCCN5CC(F)C6)nc4c3F)c12 (stereo unspecified) + COC1C(OC(N)=O)C(O)C(Oc2ccc3c(O)c(NC(=O)c4ccc(O)c(CC=C(C)C)c4)c(=O)oc3c2C)OC1(C)C
- IC50 (second compound 0.0316 µM): 2750 nM
- IC50 (second compound 0.1 µM): 2490 nM
- IC50 (second compound 0.316 µM): 2380 nM
- IC50 (second compound 1 µM): 2670 nM
- IC50 (second compound 3.16 µM): 2580 nM
- IC50 (second compound 10 µM): 2970 nM
- viability, T/C [3]: 104%
- viability, T/C [4]: 101%
- viability, T/C [25]: 88.5%
- viability, T/C [26]: 76.8%
- viability, T/C (second compound 0.0316 µM, first compound 3.16 µM): 45.2%
- viability, T/C (second compound 0.0316 µM, first compound 10 µM): 21.7%
- viability, T/C [7]: 104%
- viability, T/C [8]: 94.3%
- viability, T/C [27]: 93%
- viability, T/C [28]: 72.1%
- viability, T/C (second compound 0.1 µM, first compound 3.16 µM): 44%
- viability, T/C (second compound 0.1 µM, first compound 10 µM): 21.7%
- viability, T/C [11]: 95.7%
- viability, T/C [12]: 107%
- viability, T/C [29]: 88.7%
- viability, T/C [30]: 76.6%
- viability, T/C (second compound 0.316 µM, first compound 3.16 µM): 40.9%
- viability, T/C (second compound 0.316 µM, first compound 10 µM): 22.6%
- viability, T/C [15]: 97.9%
- viability, T/C [16]: 100%
- viability, T/C [31]: 90%
- viability, T/C [32]: 76.5%
- viability, T/C (second compound 1 µM, first compound 3.16 µM): 45.2%
- viability, T/C (second compound 1 µM, first compound 10 µM): 20.8%
- viability, T/C [19]: 94.9%
- viability, T/C [20]: 97.2%
- viability, T/C [33]: 90.3%
- viability, T/C [34]: 67.2%
- viability, T/C (second compound 3.16 µM, first compound 3.16 µM): 47.8%
- viability, T/C (second compound 3.16 µM, first compound 10 µM): 22.3%
- viability, T/C [23]: 99.4%
- viability, T/C [24]: 92.6%
- viability, T/C [35]: 95.2%
- viability, T/C [36]: 73.9%
- viability, T/C (second compound 10 µM, first compound 3.16 µM): 49.4%
- viability, T/C (second compound 10 µM, first compound 10 µM): 21.9%
